Publication PMC3749252 (Nature chemical biology, 2013)

Columns and labels:
mouse Smoothened (mSmo) [1] = biological target: T1, mouse Smoothened (mSmo) (Mus musculus, UniProt P56726); test: competition of 22-NHC bead binding
T1 sequence (P56726 32-236): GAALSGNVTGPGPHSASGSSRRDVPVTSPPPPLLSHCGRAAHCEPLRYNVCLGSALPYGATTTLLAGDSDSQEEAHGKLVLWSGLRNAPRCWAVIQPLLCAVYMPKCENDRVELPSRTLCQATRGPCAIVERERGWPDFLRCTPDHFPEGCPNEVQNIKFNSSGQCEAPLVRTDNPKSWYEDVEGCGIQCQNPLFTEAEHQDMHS

mouse Smoothened (mSmo) [2] = biological target: T1, mouse Smoothened (mSmo); test: competition of binding to 20-OHC affinity beads, immunoblot

| Compound | competition of 22-NHC bead binding; 20-OHC affinity beads, immunoblot (mouse Smoothened (mSmo) [1]) | competition of binding to 20-OHC affinity beads, immunoblot (mouse Smoothened (mSmo) [2]) |
| --- | --- | --- |
| CC(C)CCC[C@](C)(O)[C@H]1CC[C@H]2[C@@H]3CC=C4C[C@@H](O)CC[C@]4(C)[C@H]3CC[C@@]21C [20(S)-hydroxycholesterol] | Binding of mSmoCRD to 22-NHC beads was competed by 20-OHC and 20-OHC-Pent, but not by 7-OHC |  |
| C[C@H](CCCC(C)(C)O)[C@H]1CC[C@H]2[C@@H]3CC=C4C[C@@H](O)CC[C@]4(C)[C@H]3CC[C@]12C [25-OHC] |  | binding of mSmo and mSmoCRD to 20-OHC beads was competed by the active oxysterol 25-OHC |
